Experimental data taken from ChEMBL document CHEMBL1133349, “Novel phenylpiperazine derivatives as dual cytokine regulators with TNF-alpha suppressing and IL-10 augmenting activity” (Bioorg Med Chem Lett, 2000).

What was measured:
[1] = biological target: T1, 5-hydroxytryptamine receptor 1A (Rattus norvegicus, UniProt P19327); experiment: Binding affinity towards 5-hydroxytryptamine 1A receptor
T1 sequence (P19327 whole entry): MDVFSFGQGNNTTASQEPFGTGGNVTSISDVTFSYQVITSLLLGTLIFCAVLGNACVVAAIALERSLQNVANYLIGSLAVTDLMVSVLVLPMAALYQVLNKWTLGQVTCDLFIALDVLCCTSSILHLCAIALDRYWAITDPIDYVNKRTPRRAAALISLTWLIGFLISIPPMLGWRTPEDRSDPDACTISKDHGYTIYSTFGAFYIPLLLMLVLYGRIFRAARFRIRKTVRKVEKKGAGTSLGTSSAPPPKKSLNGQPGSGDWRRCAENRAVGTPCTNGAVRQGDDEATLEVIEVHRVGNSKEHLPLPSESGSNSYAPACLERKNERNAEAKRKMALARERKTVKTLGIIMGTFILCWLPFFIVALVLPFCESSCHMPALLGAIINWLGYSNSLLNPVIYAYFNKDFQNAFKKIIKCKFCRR

[2] = biological target: Serotonin 2 (5-HT2) receptor (Homo sapiens, UniProt P41595+P28223+P28335); experiment: Binding affinity towards 5-hydroxytryptamine 2 receptor; assay type: protein assay
[3] = biological target: T2, Adrenergic receptor alpha-1 (Rattus norvegicus, UniProt P15823+P23944+P43140); experiment: Binding affinity towards Alpha-1 adrenergic receptor; assay type: protein assay
T2 sequence (P15823 whole entry): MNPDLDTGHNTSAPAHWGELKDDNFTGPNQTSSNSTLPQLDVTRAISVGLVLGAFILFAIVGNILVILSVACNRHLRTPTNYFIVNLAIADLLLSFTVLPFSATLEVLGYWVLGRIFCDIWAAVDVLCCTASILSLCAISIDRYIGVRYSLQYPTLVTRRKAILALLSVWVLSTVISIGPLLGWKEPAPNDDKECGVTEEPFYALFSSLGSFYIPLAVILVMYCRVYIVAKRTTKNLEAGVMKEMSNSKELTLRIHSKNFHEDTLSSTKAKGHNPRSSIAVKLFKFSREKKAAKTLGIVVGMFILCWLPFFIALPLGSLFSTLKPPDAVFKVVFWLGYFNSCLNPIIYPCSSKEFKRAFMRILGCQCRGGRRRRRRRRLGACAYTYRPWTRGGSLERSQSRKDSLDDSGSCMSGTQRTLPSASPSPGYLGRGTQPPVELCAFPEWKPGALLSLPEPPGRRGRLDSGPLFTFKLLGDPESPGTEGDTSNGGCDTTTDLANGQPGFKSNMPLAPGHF
T2 sequence (P23944 whole entry): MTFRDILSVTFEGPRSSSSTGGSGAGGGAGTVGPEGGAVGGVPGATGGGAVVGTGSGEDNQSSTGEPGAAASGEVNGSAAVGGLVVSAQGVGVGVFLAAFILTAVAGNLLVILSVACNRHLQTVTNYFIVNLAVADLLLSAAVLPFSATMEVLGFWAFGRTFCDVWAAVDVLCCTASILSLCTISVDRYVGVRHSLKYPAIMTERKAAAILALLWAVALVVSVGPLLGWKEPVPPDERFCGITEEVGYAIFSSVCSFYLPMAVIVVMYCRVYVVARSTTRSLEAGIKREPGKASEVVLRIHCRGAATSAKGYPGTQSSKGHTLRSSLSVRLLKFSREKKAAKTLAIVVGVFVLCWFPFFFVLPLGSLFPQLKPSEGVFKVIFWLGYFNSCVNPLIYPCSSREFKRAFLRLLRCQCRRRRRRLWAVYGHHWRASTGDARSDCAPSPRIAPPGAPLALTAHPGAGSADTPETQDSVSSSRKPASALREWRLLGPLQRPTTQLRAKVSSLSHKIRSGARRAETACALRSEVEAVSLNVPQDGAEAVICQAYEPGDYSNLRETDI
T2 sequence (P43140 whole entry): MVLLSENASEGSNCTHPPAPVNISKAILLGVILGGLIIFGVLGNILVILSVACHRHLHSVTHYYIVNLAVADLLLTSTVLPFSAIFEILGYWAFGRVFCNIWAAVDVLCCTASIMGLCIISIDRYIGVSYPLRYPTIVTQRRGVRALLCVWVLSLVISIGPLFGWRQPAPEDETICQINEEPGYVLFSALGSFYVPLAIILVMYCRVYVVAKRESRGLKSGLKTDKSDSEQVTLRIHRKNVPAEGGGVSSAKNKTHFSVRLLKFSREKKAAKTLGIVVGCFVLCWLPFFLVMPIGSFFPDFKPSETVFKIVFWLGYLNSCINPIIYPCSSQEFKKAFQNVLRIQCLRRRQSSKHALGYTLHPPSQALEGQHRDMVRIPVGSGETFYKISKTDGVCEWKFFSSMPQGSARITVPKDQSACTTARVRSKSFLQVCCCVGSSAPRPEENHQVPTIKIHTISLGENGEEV

D(2) dopamine receptor = D(2) dopamine receptor (Bos taurus, UniProt P20288); experiment: Binding affinity towards Dopamine receptor D2
Mus musculus [4] = experiment: Ability to inhibit TNF-alpha in LPS-stimulated mice after oral administration by ELISA assay; assay type: functional; design: concentration or dose not given beside the values
Mus musculus [5] = experiment: Ability to augment IL-10 in LPS-stimulated mice after oral administration by ELISA assay; assay type: functional; design: concentration or dose not given beside the values
[6] = Oral bioavailability at a dose of 30 mg/kg in rats; assay type: ADME, organism-based; settings: rat, in vivo
Mus musculus [7] = species on record: Mus musculus; experiment: Dose that prevented shock death in mice; assay type: functional
Mus musculus [8] = experiment: Ability of compound to prevent shock death in mice expressed as no of mice that survived out of 10 at a dose of 10 mg/kg; assay type: functional

Sequence of D(2) dopamine receptor (P20288 whole entry): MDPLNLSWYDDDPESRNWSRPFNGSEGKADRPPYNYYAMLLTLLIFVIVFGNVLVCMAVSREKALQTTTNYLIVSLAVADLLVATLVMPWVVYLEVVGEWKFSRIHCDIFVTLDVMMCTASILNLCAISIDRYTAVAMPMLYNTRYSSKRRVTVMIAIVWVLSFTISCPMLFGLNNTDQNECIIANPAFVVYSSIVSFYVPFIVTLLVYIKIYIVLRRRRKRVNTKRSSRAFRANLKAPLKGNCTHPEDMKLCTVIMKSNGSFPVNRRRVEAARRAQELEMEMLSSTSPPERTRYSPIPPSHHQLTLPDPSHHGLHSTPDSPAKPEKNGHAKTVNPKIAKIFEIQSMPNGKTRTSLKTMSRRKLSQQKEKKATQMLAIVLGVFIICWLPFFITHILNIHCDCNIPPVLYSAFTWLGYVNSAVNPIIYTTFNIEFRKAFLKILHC

Row | Structure (SMILES) | Ki [1] | Ki [2] | Ki [3] | Ki (D(2) dopamine receptor) | Inhibition (Mus musculus [4]) | IL-10 level (% of control) (Mus musculus [5]) | bioavailability [6] | Dose (Mus musculus [7]) | Survival (Mus musculus [8])
1 | CC(=O)NCc1ccc(CCN2CCN(c3ccccc3)CC2)cc1 | 0.0029 µM | 0.13 µM | 0.069 µM | 0.17 µM | 96% | 2784% | – | – | –
2 | N/C(S)=N/Cc1ccc(CCCCN2CCN(c3ccccc3)CC2)cc1 | – | – | – | – | 69% | 129% | – | – | –
3 | CC(=O)NCCc1ccc(CCCCN2CCN(c3ccccc3)CC2)cc1 | – | – | – | – | 76% | 292% | – | – | –
4 | N=C(N)NCc1ccc(CCCCN2CCN(c3ccccc3)CC2)cc1 | – | – | – | – | 39% | 124% | – | – | –
5 | Nc1nc(-c2ccc(CCCCN3CCN(c4ccccc4)CC3)cc2)cs1 | 0.0038 µM | 0.037 µM | 0.0079 µM | 0.0055 µM | 87% | 382% | – | – | –
6 | c1ccc(CCCCN2CCN(c3ccccc3)CC2)cc1 | – | – | – | – | 77% | 337% | – | – | –
7 | CC(=O)NCc1ccc(CN2CCN(c3ccc(Cl)cc3)CC2)cc1 | > 1 µM | > 1 µM | > 1 µM | > 1 µM | 65% | 361% | – | – | –
8 | CC(=O)NCCCc1ccc(CCCCN2CCN(c3ccccc3)CC2)cc1 | – | – | – | – | 68% | 146% | – | – | –
9 | COc1ccc(N2CCN(Cc3ccc(CNC(C)=O)cc3)CC2)cc1 | > 1 µM | > 1 µM | > 1 µM | > 1 µM | 74% | 449% | – | – | –
10 | CC(=O)NCc1ccc(CN2CCN(c3ccccc3)CC2)cc1 | 0.14 µM | > 1 µM | > 1 µM | > 1 µM | 89% | 376% | – | – | –
11 | NC(=O)NCc1ccc(CCCCN2CCN(c3ccccc3)CC2)cc1 | – | – | – | – | 85% | 253% | – | – | –
12 | CC(=O)NCc1ccc(CCCN2CCN(c3ccccc3)CC2)cc1 | 0.033 µM | 0.16 µM | 0.0064 µM | 0.34 µM | 97% | 1805% | – | – | –
13 | CC(=O)NCc1ccc(CCCCN2CCN(c3ccccc3)CC2)cc1 | 0.006 µM | 0.048 µM | 0.0046 µM | 0.049 µM | 94% | 1337% | – | – | –
14 | CC(=O)NCc1ccc(CN2CCN(c3ccc(F)cc3)CC2)cc1 | > 1 µM | > 1 µM | > 1 µM | > 1 µM | 87% | 1494% | – | – | –
15 | CC(=O)NCc1ccc(CN2CCN(c3ccc(F)cc3F)CC2)cc1 | – | > 1 µM | > 1 µM | > 1 µM | 91% | 2293% | 95.5% | 10 mg/kg | 8
16 | CC(=O)Nc1ccc(CCCCN2CCN(c3ccccc3)CC2)cc1 | – | – | – | – | 88% | 585% | – | – | –
